One series deals with Aphis gossypii. Put plainly: Aphis gossypii contact test (APHIGO c). It is filed as in vivo. The following applies: 2.4 g/ha, 7 dat. Here is the method: Aphis gossypii—Contact Test (APHIGO c)
(§1) Solvent: 7 parts by weight of dimethylformamide
Emulsifier: alkylaryl polyglycol ether
(§2) To produce an appropriate active ingredient formulation, 1 part by weight of active ingredient is dissolved using the stated parts by weight of solvent and made up with water containing an emulsifier concentration of 1000 ppm until the desired concentration is attained. To produce further test concentrations, the preparation is diluted with emulsifier-containing water. In the event that addition of ammonium salts or/and penetrants (rapeseed oil methyl ester) is required, these are each pipetted in a concentration of 1000 ppm after the finished formulation solution has been diluted.
One-leaved cotton plants (Gossypium hirsutum) heavily infested by the cotton aphid (Aphis gossypii) are treated by spraying the underside of the leaf with the active ingredient formulation in the desired concentration.
(§3) After the desired time, the kill in % is determined. 100% means that all the aphids have been killed and 0% means that none of the aphids have been killed.

A further series has as its system Myzus persicae. Put plainly: Myzus persicae translaminar test (MYZUPE t). Type of series: in vivo. The following applies: 14 dat. Here is the method: Myzus persicae—Translaminar Test (MYZUPE t)
as §1
Emulsifier: alkylaryl poly glycol ether
as §2
One-leaved bell pepper plants (Capsicum annuum) heavily infested by the green peach aphid (Myzus persicae) are treated by spraying the top side of the leaf with the active ingredient formulation in the desired concentration.
as §3

Series [1] can be described thus: log P by HPLC on a reversed-phase column (C 18), EEC Directive 79/831 Annex V.A8. It is filed as physicochemical. The following applies: 55° C. The method in brief: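 Reversed-phase C18 HPLC at 55 °C, 10→95% acetonitrile linear gradient. log P (HCOOH) run at pH 2.7 with 0.1% formic acid; log P (neutral) at pH 7.8 with 0.001 M ammonium hydrogencarbonate. Calibrated by retention-time interpolation between unbranched C3–C16 alkan-2-ones of known log P.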

In the next series the test system is Ctenocephalides felis. As to the kind of experiment: Ctenocephalides felis in vitro contact test. Type of series: in vivo. The following applies: application rate 5 μg/cm^2; adult cat fleas; after 48 h. Here is the method:
Ctenocephalides felis—In Vitro Contact Test
For the coating of the test tubes, 9 mg of active ingredient are first dissolved in 1 ml of acetone p.a. and then diluted to the desired concentration with acetone p.a. 250 μl of the solution are distributed homogeneously on the inner walls and base of a 25 ml test tube by turning and rocking on an orbital shaker (rocking rotation at 30 rpm for 2 h). With 900 ppm active ingredient solution and internal surface 44.7 cm^2, given homogeneous distribution, an area-based dose of 5 μg/cm^2 is achieved.
After the solvent has evaporated off, the tubes are populated with 5-10 adult cat fleas (Ctenocephalides felis), sealed with a perforated plastic lid and incubated in a horizontal position at room temperature and ambient humidity. After 48 h, efficacy is determined. To this end, the test tubes are stood upright and the fleas are knocked to the base of the tube. Fleas which remain motionless at the base or move in an uncoordinated manner are considered to be dead or moribund.
100% efficacy means that all the fleas were dead or moribund. 0% efficacy means that no fleas were harmed.

On to `CCS(=O)(=O)c1cc(C(F)(F)F)cnc1-c1nc2cc(C(F)(F)F)ncc2n1C` [Example I-21], for which the “% efficacy” value in the series on Aphis gossypii was found to be 98%; in the series on Myzus persicae (2.4 g/ha), 90%; in the series with Myzus persicae (12 g/ha) it was 98%. In series [1] (acidic range, pH 2.7, 0.1% aqueous formic acid/acetonitrile), the LOGP_HCOOH amounted to 2.98. For the same molecule, in series [1] (neutral range, pH 7.8, 0.001 molar aqueous ammonium hydrogencarbonate/acetonitrile), the LOGP_NEUTRAL amounted to 2.93. In addition, the efficacy with Ctenocephalides felis is recorded as 100%.

(Values after patent US11274097B2, “2-(het)aryl-substituted condensed bicyclic heterocycle derivatives as pest control agents” (BAYER CROPSCIENCE AKTIENGESELLSCHAFT, priority 2014, dated 2022).)
